Assay results reported in patent publication US5270302A, “Derivatives of tetrapeptides as CCK agonists” (priority 1991, dated 1993).
Read-outs that look alike come from different tables or passages of the source. *1 amine or outer side, *2 acyl side, *3 side chain or, on linkers, in order; H or OH if unused. Where a SMILES comes first, the peptide text is derived from it. Side-chain parts run from the residue outwards. [ ]: non-standard residue; d: D form. The star is where a group is joined. ξ: configuration not given here. NMeW = CN[C@@H](Cc1c[nH]c2ccccc12)C(=O)O; ξαMeW = CC(N)(Cc1c[nH]c2ccccc12)C(=O)O; 1Nal = N[C@@H](Cc1cccc2ccccc12)C(=O)O; NMeF = CN[C@@H](Cc1ccccc1)C(=O)O; Cha = N[C@@H](CC1CCCCC1)C(=O)O; NMeD = CN[C@@H](CC(=O)O)C(=O)O; NH(2-Me-phenyl) = Cc1ccccc1N*; Suc = O=C(CCC(=O)[*:2])[*:1]; X15 = Clc1cccc(N*)c1Cl; Boc = CC(C)(C)OC(=O)*; CO = O=C([*:1])[*:2]; X2 = C1CN(CCO*)CCO1; Ms = CS(=O)(=O)*; Moc = COC(=O)*

What was measured:
[1] = molecular target: T1, Type-A CCK receptor (Cavia porcellus, UniProt Q63931); test: Radioligand binding of [125I]BH-CCK-8 in guinea pig pancreatic membrane preparations
T1 construct: Cortical and pancreatic membranes were prepared as described; from tissue; host or cells: guinea pig pancreas membranes
T1 sequence (Q63931 1-430): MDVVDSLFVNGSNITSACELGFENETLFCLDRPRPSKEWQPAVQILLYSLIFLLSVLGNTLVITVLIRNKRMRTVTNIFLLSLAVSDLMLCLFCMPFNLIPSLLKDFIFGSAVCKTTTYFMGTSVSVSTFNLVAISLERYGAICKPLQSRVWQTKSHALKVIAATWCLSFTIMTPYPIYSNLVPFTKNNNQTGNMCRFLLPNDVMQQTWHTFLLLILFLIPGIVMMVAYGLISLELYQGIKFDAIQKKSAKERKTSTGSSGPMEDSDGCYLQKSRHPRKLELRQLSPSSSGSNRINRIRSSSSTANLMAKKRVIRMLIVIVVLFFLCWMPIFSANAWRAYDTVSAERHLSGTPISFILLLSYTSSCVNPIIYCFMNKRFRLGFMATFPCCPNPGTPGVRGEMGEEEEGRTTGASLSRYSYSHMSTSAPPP
Outline: (§1)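 Membranes came from male guinea pig pancreas (type A) or cerebral cortex (type B) and were resuspended in pH 7.4 HEPES-EGTA-salt buffer containing bestatin and phosphoramidon. Test compounds competed with [125I]BH-CCK-8 in 0.1% BSA: cortex 150 min at 30 °C, pancreas 150 min at 37 °C. Reactions ended by filtration; IC50 from Hill analysis.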

[2] = molecular target: T2, Type-B CCK receptor (Cavia porcellus, UniProt H0VZC5); test: Radioligand binding of [125I]BH-CCK-8 in guinea pig cerebral cortical membrane preparations
T2 construct: Cortical and pancreatic membranes were prepared as described; from tissue; host or cells: guinea pig cerebral cortex membranes
T2 sequence (H0VZC5 1-426): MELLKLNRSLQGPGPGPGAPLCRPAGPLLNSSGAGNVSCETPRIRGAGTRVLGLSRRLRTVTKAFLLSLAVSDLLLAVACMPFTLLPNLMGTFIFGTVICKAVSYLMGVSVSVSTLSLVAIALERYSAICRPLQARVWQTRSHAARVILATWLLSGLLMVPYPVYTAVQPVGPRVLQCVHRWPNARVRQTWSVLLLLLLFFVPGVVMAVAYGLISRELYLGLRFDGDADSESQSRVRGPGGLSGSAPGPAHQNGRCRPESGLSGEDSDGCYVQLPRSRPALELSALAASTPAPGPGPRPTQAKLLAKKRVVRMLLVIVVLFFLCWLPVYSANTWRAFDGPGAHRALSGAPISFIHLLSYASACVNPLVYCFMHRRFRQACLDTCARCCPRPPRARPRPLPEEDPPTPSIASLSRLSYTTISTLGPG
Outline: as §1

[3] = tested on: rats; test: Feeding effects of acute administration of CCK agonists in rats (liquid diet); type: in vivo; settings: i.p., acute (1 day)
Excerpt: Feeding Effects of Acute Administration of CCK Agonists in Rats
The experimental paradigm used in the above-mentioned chronic feeding studies was employed to establish dose reponses for CCK agonists of this invention on an acute (1 day) basis. Following an 8-day diet acclimation period, the rats were weighed and injected with vehicle. CCK-8 or test compound (see Table 7) at doses ranging from 1-1000 nmol/kg (i.p.). Six to ten minutes later, the rats were presented with the diet and intakes were recorded. No injections were administered prior to the P.M. feeding. Mean A.M. intakes as a percent of control were plotted versus log dose (nm/kg) to establish the dose response curve.

[4] = guinea pig pancreatic membranes, 37° C., 150 min, read-out: IC50 (nM) 125I-BH-CCK-8 Type-A receptor
[5] = guinea pig cortical membranes, 30° C., 150 minutes, read-out: IC50 (nM) 125I-BH-CCK-8 Type-B receptor
[6] = IC50 (nM) 125I-BH-CCK-8 Type-A receptor, guinea pig pancreatic membranes, 37° C., 150 min
[7] = IC50 (nM) 125I-BH-CCK-8 Type-B receptor, guinea pig cortical membranes, 30° C., 150 minutes

IC50 [1, 4] [nM]	IC50 [2, 5] [nM]	Structure (SMILES)	IC50 [1, 6] [nM]	IC50 [2, 7] [nM]	also measured
–	–	Cc1ccccc1NC(=O)NCCCC[C@H](NC(=O)[C@H](Cc1c[nH]c2ccccc12)NC(=O)OC(C)(C)C)C(=O)N(C)[C@@H](CC(=O)O)C(=O)N(C)[C@@H](Cc1ccccc1)C(N)=O [Example 61, t-BOC-Trp-Lys(ε-N-(2-methylphenyl)aminocarbonyl)(NMe)Asp-(NMe)PheNH2] (Boc-WK([CO-NH(2-Me-phenyl)])[NMeD][NMeF]-NH2)	–	–	IC50 [1]: 4.8 nM; IC50 [2]: 10000 nM; ED25, suppression of feeding (liquid diet) [3]: 0.6 nmol/kg; ED50, dose required to decrease mean A.M. food intake by 50% [3]: 2.6 nmol/kg
–	–	Cc1ccccc1NC(=O)NCCCC[C@H](NC(=O)[C@H](Cc1c[nH]c2ccccc12)NC(=O)CCC(=O)O)C(=O)N[C@@H](CC(=O)O)C(=O)N(C)[C@@H](Cc1ccccc1)C(N)=O [Example 94, (3-Carboxylpropionyl)-Trp-Lys(ε-N-(2-methylphenyl)aminocarbonyl)-Asp-(NMe)PheNH2] (Suc-WK([CO-NH(2-Me-phenyl)])D[NMeF]-NH2)	–	–	IC50 [1]: 16 nM; IC50 [2]: 5600 nM
47	> 10000	Cc1ccccc1NC(=O)NCCCC[C@H](NC(=O)[C@H](Cc1c[nH]c2ccccc12)NS(C)(=O)=O)C(=O)N[C@@H](CC(=O)O)C(=O)N(C)[C@@H](Cc1ccccc1)C(N)=O [Example 95, Methylsufonamyl-Trp-Lys(ε-N-(2-methylphenyl)aminocarbonyl)-Asp-(NMe)PheNH2] (Ms-WK([CO-NH(2-Me-phenyl)])D[NMeF]-NH2)	–	–	–
–	–	Cc1ccccc1NC(=O)NCCCC[C@H](NC(=O)C(C)(Cc1c[nH]c2ccccc12)NC(=O)OC(C)(C)C)C(=O)N[C@@H](CC(=O)O)C(=O)N[C@@H](Cc1ccccc1)C(N)=O (stereo partly drawn) [Example 96, t-BOC-D,L-(α-methyl)Trp-Lys(ε-N-(2-methylphenyl)aminocarbonyl)-Asp-PheNH2] (Boc-[ξαMeW]K([CO-NH(2-Me-phenyl)])DF-NH2)	16	9300	–
–	–	CN[C@@H](Cc1c[nH]c2ccccc12)C(=O)N[C@@H](CCCCNC(=O)Nc1ccccc1C)C(=O)N(C)[C@@H](CC(=O)O)C(=O)N[C@@H](Cc1cccc2ccccc12)C(N)=O [Example 100, (NMe)Trp-Lys(ε-N-(2-methylphenyl)aminocarbonyl)-(NMe)Asp-α-NalNH2] (H-[NMeW]K([CO-NH(2-Me-phenyl)])[NMeD][1Nal]-NH2)	8	12000	–
–	–	CN[C@@H](Cc1c[nH]c2ccccc12)C(=O)N[C@@H](CCCCNC(=O)Nc1ccccc1C)C(=O)N[C@@H](CC(=O)O)C(=O)N(C)[C@@H](Cc1ccccc1)C(N)=O [Example 101, (NMe)Trp-Lys(ε-N-(2-methylphenyl)aminocarbonyl)-Asp-(NMe)PheNH2] (H-[NMeW]K([CO-NH(2-Me-phenyl)])D[NMeF]-NH2)	9.3	12000	–
14	2500	Cc1ccccc1NC(=O)NCCCC[C@H](NC(=O)CCc1c[nH]c2ccccc12)C(=O)N(C)[C@@H](CC(=O)O)C(=O)N(C)[C@@H](Cc1ccccc1)C(N)=O [Example 102]	–	–	–
6.1	6600	Cc1ccccc1NC(=O)NCCCC[C@H](NC(=O)CCc1c[nH]c2ccccc12)C(=O)N(C)[C@@H](CC(=O)O)C(=O)N[C@@H](Cc1cccc2ccccc12)C(N)=O [Example 103, (3-(3-Indolyl)propionyl)-Lys(ε-N-(2-methylphenyl)aminocarbonyl)-(NMe)Asp-α-NalNH2]	–	–	–
200	4100	Cc1ccccc1NC(=O)NCCCC[C@H](NC(=O)C(C)Cc1c[nH]c2ccccc12)C(=O)N[C@@H](CC(=O)O)C(=O)N(C)[C@@H](Cc1ccccc1)C(N)=O (stereo partly drawn) [Example 104, (2-Methyl-3-(3-indolyl)propionyl)-Lys(ε-N-(2-methylphenyl)aminocarbonyl)-Asp-(NMe)PheNH2]	–	–	–
20	1300	Cc1ccccc1NC(=O)NCCCC[C@H](NC(=O)C(C#N)Cc1c[nH]c2ccccc12)C(=O)N[C@@H](CC(=O)O)C(=O)N(C)[C@@H](Cc1ccccc1)C(N)=O (stereo partly drawn) [Example 105, (2-Cyano-3-(3-indolyl)propionyl)-Lys(ε-N-(2-methylphenyl)aminocarbonyl)-Asp-(NMe)PheNH2]	–	–	–
14	10000	Cc1ccccc1NC(=O)NCCCC[C@H](NC(=O)C(F)Cc1c[nH]c2ccccc12)C(=O)N[C@@H](CC(=O)O)C(=O)N(C)[C@@H](Cc1ccccc1)C(N)=O (stereo partly drawn) [Example 108, (2-Fluoro-3-(3-indolyl)propionyl)-Lys(ε-N-(2-methylphenyl)aminocarbonyl)-Asp-(NMe)PheNH2]	–	–	–
15	> 10000	Cc1ccccc1NC(=O)NCCCC[C@H](NC(=O)C(F)Cc1c[nH]c2ccccc12)C(=O)N(C)[C@@H](CC(=O)O)C(=O)N[C@@H](Cc1ccccc1)C(N)=O (stereo partly drawn) [Example 109, (2-Fluoro-3-(3-indolyl)propionyl)-Lys(ε-N-(2-methylphenyl)aminocarbonyl)-(NMe)Asp-PheNH2]	–	–	–
77	> 10000	Cc1ccccc1NC(=O)NCCCC[C@H](NC(=O)CCc1cccc2ccccc12)C(=O)N[C@@H](CC(=O)O)C(=O)N(C)[C@@H](Cc1ccccc1)C(N)=O [Example 111, (3-(α-Naphthyl)propionyl)-Lys(ε-N-(2-methylphenyl)aminocarbonyl)-Asp-(NMe)PheNH2]	–	–	–
–	–	Cc1ccccc1NC(=O)NCCCC[C@H](NC(=O)C1Cc2c[nH]c3cccc(c23)CC(=O)N1)C(=O)N[C@@H](CC(=O)O)C(=O)N(C)[C@@H](Cc1ccccc1)C(N)=O (stereo partly drawn) [Example 112, Ctp-Lys(ε-N-(2-methylphenyl)aminocarbonyl)-Asp-(NMe)PheNH2]	6.3	900	–
–	–	Cc1ccccc1NC(=O)NCCCC[C@H](NC(=O)[C@H](Cc1c[nH]c2ccccc12)NC(=O)OC(C)(C)C)C(=O)N[C@@H](CC(=O)O)C(=O)N1CCC[C@]1(Cc1ccccc1)C(N)=O [Example 115, t-BOC-Trp-Lys(ε-N-(2-methylphenyl)aminocarbonyl)-Asp-(S)-α-benzylprolinamide]	18	> 10000	–
–	–	Cc1ccccc1NC(=O)NCCCC[C@H](NC(=O)[C@H](Cc1c[nH]c2ccccc12)NC(=O)OC(C)(C)C)C(=O)N[C@@H](CC(=O)O)C(=O)N[C@@H](CC1CCCCC1)C(N)=O [Example 116, t-BOC-Trp-Lys(ε-N-(2-methylphenyl)aminocarbonyl)-Asp-ChaNH2] (Boc-WK([CO-NH(2-Me-phenyl)])D[Cha]-NH2)	10	4000	–
–	–	Cc1ccccc1NC(=O)NCCCC[C@H](NC(=O)[C@H](Cc1c[nH]c2ccccc12)NC(=O)OC(C)(C)C)C(=O)N[C@@H](CC(=O)OCCN1CCOCC1)C(=O)N(C)[C@@H](Cc1ccccc1)C(N)=O [Example 120, t-BOC-Trp-Lys(ε-N-(2-methylphenyl)aminocarbonyl)-Asp(β-2-(1-morpholino)ethyl)-(NMe)PheNH2] (Boc-WK([CO-NH(2-Me-phenyl)])D(X2)[NMeF]-NH2)	–	–	IC50 [1]: 26 nM; IC50 [2]: 13000 nM
–	–	Cc1ccccc1NC(=O)NCCCC[C@H](NC(=O)C(C)(N)Cc1c[nH]c2ccccc12)C(=O)N(C)[C@@H](CC(=O)O)C(=O)N[C@@H](Cc1ccccc1)C(N)=O (stereo partly drawn) [Example 123] (H-[ξαMeW]K([CO-NH(2-Me-phenyl)])[NMeD]F-NH2)	5.9	> 10000	–
–	–	COC(=O)N[C@@H](Cc1c[nH]c2ccccc12)C(=O)N[C@@H](CCCCNC(=O)Nc1ccccc1C)C(=O)N(C)[C@@H](CC(=O)O)C(=O)N(C)[C@@H](Cc1ccccc1)C(N)=O [Example 124] (Moc-WK([CO-NH(2-Me-phenyl)])[NMeD][NMeF]-NH2)	4.5	2600	–

Structure (SMILES)	IC50 [1, 4] [nM]	IC50 [2, 5] [nM]	IC50 [1, 6] [nM]	IC50 [2, 7] [nM]	also measured
CC(C)(C)OC(=O)N[C@@H](Cc1c[nH]c2ccccc12)C(=O)N[C@@H](CCCCNC(=O)Nc1cccc(Cl)c1Cl)C(=O)N[C@@H](CC(=O)O)C(=O)N[C@@H](Cc1ccccc1)C(N)=O [Example 125, t-BOC-Trp-Lys(ε-N-(2,3-dichlorophenyl)aminocarbonyl)-Asp-PheNH2] (Boc-WK([CO-X15])DF-NH2)	2.8	> 10000	–	–	–
